The values below come from patent US20250051344A1, “BIFUNCTIONAL SELECTIVE DEGRADERS OF SMARCA2 AND THERAPEUTIC USES THEREOF” (Nurix Therapeutics, Inc., priority 2023, published 2025).

In one test the target is T1, SMARCA2 (Homo sapiens, UniProt P51531).
T1 construct: endogenous in cells
Description: SMARCA2 Cellular Degradation Assay (Western blot analysis on Jess platform). The test is classed as cell-based. The conditions noted are these: for DC50 / Dmax: cellular degradation; for Fold Selectivity SMARCA4/2: ratio DC50 SMARCA4 / DC50 SMARCA2. Put shortly:
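Lysates of cells extracted from tumors, 5 μg total protein per capillary, were probed for SMARCA2 and β-actin by capillary Western on Jess using chemiluminescence and fluorescence detection. SMARCA2 peak area was background-subtracted and normalized to actin, then expressed as % remaining relative to vehicle control.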
A general note: In western blotting, separated proteins are transferred to a membrane and probed.

The target in another test is T2, SMARCA4 (Homo sapiens, UniProt P51532).
T2 construct: endogenous in cells
In words: Cellular degradation assay, SMARCA4 (Table 1). The test is classed as cell-based.

Structures are written as SMILES.

T1 sequence (P51531 whole entry, species assumed): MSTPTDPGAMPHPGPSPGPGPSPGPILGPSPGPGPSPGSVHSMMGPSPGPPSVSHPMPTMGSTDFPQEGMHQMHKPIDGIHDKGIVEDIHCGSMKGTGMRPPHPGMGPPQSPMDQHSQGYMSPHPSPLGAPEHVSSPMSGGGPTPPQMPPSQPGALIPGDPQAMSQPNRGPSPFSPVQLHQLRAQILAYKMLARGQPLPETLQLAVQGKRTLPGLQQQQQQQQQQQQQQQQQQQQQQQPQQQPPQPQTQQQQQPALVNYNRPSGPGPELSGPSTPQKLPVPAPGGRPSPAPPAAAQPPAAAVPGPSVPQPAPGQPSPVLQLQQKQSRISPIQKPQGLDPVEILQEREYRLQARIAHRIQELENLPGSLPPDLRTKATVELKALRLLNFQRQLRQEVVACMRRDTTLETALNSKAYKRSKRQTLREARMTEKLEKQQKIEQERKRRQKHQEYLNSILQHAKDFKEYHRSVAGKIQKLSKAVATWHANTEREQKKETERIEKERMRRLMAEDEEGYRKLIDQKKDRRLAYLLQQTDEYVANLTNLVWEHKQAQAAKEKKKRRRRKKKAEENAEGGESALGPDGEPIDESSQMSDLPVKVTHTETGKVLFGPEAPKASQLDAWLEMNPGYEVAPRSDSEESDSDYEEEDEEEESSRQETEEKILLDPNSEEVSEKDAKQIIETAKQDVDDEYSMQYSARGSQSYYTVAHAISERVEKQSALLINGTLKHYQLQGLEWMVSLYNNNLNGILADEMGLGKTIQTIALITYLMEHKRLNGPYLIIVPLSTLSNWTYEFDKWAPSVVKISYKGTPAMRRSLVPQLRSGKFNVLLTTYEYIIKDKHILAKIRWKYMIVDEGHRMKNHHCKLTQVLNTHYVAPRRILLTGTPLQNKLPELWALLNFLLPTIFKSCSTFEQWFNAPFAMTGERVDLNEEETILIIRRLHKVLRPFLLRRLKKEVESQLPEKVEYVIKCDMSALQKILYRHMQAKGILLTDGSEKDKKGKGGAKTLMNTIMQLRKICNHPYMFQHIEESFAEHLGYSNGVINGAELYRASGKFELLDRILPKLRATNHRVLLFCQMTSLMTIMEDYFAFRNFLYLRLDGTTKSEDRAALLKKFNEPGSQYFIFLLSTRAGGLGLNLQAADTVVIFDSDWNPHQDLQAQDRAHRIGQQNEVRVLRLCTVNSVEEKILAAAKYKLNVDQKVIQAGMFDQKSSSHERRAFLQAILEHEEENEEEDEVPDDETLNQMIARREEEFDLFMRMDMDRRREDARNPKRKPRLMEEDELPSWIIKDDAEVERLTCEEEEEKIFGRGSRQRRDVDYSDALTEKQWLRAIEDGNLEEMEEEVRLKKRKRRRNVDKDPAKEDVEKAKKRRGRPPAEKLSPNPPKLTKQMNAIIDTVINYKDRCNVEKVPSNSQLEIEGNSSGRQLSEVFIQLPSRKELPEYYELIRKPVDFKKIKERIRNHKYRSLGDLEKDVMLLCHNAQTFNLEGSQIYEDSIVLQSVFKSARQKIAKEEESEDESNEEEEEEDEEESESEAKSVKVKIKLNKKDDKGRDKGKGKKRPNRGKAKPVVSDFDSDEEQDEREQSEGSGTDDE
T2 sequence (P51532 whole entry, species assumed): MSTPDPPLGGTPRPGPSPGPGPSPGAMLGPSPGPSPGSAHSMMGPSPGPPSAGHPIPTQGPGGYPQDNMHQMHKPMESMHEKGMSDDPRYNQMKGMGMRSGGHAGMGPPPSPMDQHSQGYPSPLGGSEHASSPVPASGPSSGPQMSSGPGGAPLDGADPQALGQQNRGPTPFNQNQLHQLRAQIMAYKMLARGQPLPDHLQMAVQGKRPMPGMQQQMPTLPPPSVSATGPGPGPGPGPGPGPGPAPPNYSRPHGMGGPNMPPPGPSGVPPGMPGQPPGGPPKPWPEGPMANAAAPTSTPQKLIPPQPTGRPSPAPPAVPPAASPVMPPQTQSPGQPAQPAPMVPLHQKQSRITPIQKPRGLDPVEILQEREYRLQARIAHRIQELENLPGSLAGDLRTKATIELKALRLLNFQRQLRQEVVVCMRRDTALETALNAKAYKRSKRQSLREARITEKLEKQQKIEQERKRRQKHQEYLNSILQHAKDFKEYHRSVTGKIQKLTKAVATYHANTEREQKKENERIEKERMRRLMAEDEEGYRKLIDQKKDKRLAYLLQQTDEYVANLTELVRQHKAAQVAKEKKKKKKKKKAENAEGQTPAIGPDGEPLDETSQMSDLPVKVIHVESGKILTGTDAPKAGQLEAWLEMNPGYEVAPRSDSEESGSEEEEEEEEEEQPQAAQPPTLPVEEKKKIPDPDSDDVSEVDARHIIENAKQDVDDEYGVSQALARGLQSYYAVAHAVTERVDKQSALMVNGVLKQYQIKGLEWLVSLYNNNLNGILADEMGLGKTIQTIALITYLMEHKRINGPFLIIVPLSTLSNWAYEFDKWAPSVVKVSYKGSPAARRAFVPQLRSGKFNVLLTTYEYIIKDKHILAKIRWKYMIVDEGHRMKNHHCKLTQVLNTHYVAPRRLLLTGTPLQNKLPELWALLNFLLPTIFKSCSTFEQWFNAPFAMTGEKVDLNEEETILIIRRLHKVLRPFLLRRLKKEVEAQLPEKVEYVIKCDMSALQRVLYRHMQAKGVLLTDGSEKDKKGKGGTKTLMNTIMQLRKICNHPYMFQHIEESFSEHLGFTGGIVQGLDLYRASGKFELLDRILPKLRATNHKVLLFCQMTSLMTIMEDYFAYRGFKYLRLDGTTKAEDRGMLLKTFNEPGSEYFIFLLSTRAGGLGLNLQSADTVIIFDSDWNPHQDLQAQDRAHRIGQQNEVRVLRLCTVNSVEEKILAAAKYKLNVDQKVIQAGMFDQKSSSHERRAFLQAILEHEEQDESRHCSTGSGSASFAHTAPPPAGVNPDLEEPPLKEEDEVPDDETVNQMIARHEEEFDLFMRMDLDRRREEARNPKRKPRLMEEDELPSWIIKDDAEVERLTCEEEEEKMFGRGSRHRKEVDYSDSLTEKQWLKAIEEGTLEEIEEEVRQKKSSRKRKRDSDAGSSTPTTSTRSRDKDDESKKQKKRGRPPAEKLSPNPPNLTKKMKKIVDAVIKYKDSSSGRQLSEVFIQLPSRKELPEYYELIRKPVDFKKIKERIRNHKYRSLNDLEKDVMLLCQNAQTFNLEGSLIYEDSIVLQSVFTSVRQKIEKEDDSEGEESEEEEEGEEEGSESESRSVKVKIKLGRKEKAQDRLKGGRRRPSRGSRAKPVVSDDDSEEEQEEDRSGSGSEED

Broadly, the DC50 is the midpoint of the concentration-degradation curve. As a reminder, the Dmax is the greatest extent of degradation seen. The low end stands for a partial loss of target, the high end for a fuller loss of target. Consider `Cc1ccn(C2(C(=O)NC3CCN(CC4CCN(c5ccc([C@H]6CCC(=O)NC6=O)cc5)CC4)C4(CCC4)C3)CCN(c3cnnc(-c4ccccc4O)c3)CC2)n1` (stereo partly drawn) [Example 162, N-{5-[(1-{4-[(3R)-2,6-dioxopiperidin-3-yl]phenyl}piperidin-4-yl)methyl]-5-azaspiro[3.5]nonan-8-yl}-1-[6-(2-hydroxyphenyl)pyridazin-4-yl]-4-(3-methyl-1H-pyrazol-1-yl)piperidine-4-carboxamide], for which, on SMARCA2, the DC50 came to 2.62 nM, the maximal degradation (Dmax) was determined as 84.7% and the “Fold Selectivity SMARCA4/2” value was 10. Moreover, at SMARCA4, the DC50 worked out at 25.9 nM and the maximal degradation (Dmax) was found to be 63.9%.
For `COC1(C(=O)N2CCC3(CC2)CN(CC2CCN(c4ccc([C@H]5CCC(=O)NC5=O)cc4)CC2)C3)CCN(c2cnnc(-c3ccccc3O)c2)CC1` [Example 120, (r)-3-(4-(4-((7-(1-(6-(2-hydroxyphenyl)pyridazin-4-yl)-4-methoxypiperidine-4-carbonyl)-2,7-diazaspiro[3.5]nonan-2-yl)methyl)piperidin-1-yl)phenyl)piperidine-2,6-dione], at SMARCA2, the DC50 was determined as 7.6 nM, the Dmax worked out at 78.4% and the “Fold Selectivity SMARCA4/2” value is listed as 1316. The Dmax on SMARCA4 is 50%.
For `CC1(CCN2CC3(C2)CN(C(=O)C2(c4ccccc4)CCN(c4cnnc(-c5ccccc5O)c4)CC2)C3)CCN(c2ccc(C3CCC(=O)NC3=O)cc2)CC1` (racemic) [Example 131, rac-(3R)-3-(4-{4-[2-(6-{1-[6-(2-hydroxyphenyl)pyridazin-4-yl]-4-phenylpiperidine-4-carbonyl}-2,6-diazaspiro[3.3]heptan-2-yl)ethyl]-4-methylpiperidin-1-yl}phenyl)piperidine-2,6-dione], in that order: 29.4 nM, 71.3%, 340 and 38.9%.
In the same order, the values of `O=C1CC[C@@H](c2ccc(N3CCC(CN4CCCC(CNC(=O)C5(c6ccccc6)CCN(c6cnnc(-c7ccccc7O)c6)CC5)C4)CC3)cc2)C(=O)N1` (stereo partly drawn) [Example 10, N-({1-[(1-{4-[(3S)-2,6-dioxopiperidin-3-yl]phenyl}piperidin-4-yl)methyl]piperidin-3-yl}methyl)-1-[6-(2-hydroxyphenyl)pyridazin-4-yl]-4-phenylpiperidine-4-carboxamide] are 80.1 nM, 59.3%, 124.82 and 25.6%.
For `CN(C(=O)C1(c2ccccc2)CCN(c2cnnc(-c3ccccc3O)c2)CC1)C1CCN([C@H]2COC3(CCN(c4ccc([C@H]5CCC(=O)NC5=O)cc4)CC3)C2)CC1` (single isomer, unassigned) [Example 149], in that order: 7.34 nM, 84.9%, 1362 and 41%.
Turning to `CN(C(=O)C1(c2ccnn2C)CCN(c2cnnc(-c3ccccc3O)c2)CC1)C1CCN(CCC2CCN(c3ccc(C4CCC(=O)NC4=O)cc3)CC2)CC1` (racemic) [Example 87, rac-N-{1-[2-(1-{4-[(3r)-2,6-dioxopiperidin-3-yl]phenyl}piperidin-4-yl)ethyl]piperidin-4-yl}-1-[6-(2-hydroxyphenyl)pyridazin-4-yl]-N-methyl-4-(1-methyl-1H-pyrazol-5-yl)piperidine-4-carboxamide], on SMARCA2, half-maximal degradation (DC50) was put at 2.79 nM, the Dmax stood at 87.7% and the “Fold Selectivity SMARCA4/2” value is reported as 3583. The greatest degradation seen (Dmax) at SMARCA4 was determined as 22.5%.
For `COC1(C(=O)N(C)C2CCN(CCC3CCN(c4ccc(C5CCC(=O)NC5=O)cc4)CC3)CC2)CCN(c2cnnc(-c3ccccc3O)c2)CC1` (racemic) [Example 195, rac-N-(1-(2-(1-(4-(2,6-dioxopiperidin-3-yl)phenyl)piperidin-4-yl)ethyl)piperidin-4-yl)-1-(6-(2-hydroxyphenyl)pyridazin-4-yl)-4-methoxy-n-methylpiperidine-4-carboxamide], in that order: 13.7 nM, 70%, 727 and 20.3%.
